{"source": "patent US10745399B2", "about": "(priority 2015, dated 2020)", "key": {"[1]": {"system": "CHK2 phosphorylation (phospho-Thr68) in HCT116 cells", "experiment": "Cellular pCHK2 assay, bleomycin-induced phosphorylation of CHK2 (phospho-Thr68), immunofluorescence high content", "format": "cell-based", "conditions": "Homo sapiens, HCT-116, 4 h, read-out: IC50 (pCHK2)"}, "human recombinant ATM": {"target": "human recombinant ATM (Homo sapiens (Human), UniProt Q13315)", "sequence (Q13315 whole entry)": "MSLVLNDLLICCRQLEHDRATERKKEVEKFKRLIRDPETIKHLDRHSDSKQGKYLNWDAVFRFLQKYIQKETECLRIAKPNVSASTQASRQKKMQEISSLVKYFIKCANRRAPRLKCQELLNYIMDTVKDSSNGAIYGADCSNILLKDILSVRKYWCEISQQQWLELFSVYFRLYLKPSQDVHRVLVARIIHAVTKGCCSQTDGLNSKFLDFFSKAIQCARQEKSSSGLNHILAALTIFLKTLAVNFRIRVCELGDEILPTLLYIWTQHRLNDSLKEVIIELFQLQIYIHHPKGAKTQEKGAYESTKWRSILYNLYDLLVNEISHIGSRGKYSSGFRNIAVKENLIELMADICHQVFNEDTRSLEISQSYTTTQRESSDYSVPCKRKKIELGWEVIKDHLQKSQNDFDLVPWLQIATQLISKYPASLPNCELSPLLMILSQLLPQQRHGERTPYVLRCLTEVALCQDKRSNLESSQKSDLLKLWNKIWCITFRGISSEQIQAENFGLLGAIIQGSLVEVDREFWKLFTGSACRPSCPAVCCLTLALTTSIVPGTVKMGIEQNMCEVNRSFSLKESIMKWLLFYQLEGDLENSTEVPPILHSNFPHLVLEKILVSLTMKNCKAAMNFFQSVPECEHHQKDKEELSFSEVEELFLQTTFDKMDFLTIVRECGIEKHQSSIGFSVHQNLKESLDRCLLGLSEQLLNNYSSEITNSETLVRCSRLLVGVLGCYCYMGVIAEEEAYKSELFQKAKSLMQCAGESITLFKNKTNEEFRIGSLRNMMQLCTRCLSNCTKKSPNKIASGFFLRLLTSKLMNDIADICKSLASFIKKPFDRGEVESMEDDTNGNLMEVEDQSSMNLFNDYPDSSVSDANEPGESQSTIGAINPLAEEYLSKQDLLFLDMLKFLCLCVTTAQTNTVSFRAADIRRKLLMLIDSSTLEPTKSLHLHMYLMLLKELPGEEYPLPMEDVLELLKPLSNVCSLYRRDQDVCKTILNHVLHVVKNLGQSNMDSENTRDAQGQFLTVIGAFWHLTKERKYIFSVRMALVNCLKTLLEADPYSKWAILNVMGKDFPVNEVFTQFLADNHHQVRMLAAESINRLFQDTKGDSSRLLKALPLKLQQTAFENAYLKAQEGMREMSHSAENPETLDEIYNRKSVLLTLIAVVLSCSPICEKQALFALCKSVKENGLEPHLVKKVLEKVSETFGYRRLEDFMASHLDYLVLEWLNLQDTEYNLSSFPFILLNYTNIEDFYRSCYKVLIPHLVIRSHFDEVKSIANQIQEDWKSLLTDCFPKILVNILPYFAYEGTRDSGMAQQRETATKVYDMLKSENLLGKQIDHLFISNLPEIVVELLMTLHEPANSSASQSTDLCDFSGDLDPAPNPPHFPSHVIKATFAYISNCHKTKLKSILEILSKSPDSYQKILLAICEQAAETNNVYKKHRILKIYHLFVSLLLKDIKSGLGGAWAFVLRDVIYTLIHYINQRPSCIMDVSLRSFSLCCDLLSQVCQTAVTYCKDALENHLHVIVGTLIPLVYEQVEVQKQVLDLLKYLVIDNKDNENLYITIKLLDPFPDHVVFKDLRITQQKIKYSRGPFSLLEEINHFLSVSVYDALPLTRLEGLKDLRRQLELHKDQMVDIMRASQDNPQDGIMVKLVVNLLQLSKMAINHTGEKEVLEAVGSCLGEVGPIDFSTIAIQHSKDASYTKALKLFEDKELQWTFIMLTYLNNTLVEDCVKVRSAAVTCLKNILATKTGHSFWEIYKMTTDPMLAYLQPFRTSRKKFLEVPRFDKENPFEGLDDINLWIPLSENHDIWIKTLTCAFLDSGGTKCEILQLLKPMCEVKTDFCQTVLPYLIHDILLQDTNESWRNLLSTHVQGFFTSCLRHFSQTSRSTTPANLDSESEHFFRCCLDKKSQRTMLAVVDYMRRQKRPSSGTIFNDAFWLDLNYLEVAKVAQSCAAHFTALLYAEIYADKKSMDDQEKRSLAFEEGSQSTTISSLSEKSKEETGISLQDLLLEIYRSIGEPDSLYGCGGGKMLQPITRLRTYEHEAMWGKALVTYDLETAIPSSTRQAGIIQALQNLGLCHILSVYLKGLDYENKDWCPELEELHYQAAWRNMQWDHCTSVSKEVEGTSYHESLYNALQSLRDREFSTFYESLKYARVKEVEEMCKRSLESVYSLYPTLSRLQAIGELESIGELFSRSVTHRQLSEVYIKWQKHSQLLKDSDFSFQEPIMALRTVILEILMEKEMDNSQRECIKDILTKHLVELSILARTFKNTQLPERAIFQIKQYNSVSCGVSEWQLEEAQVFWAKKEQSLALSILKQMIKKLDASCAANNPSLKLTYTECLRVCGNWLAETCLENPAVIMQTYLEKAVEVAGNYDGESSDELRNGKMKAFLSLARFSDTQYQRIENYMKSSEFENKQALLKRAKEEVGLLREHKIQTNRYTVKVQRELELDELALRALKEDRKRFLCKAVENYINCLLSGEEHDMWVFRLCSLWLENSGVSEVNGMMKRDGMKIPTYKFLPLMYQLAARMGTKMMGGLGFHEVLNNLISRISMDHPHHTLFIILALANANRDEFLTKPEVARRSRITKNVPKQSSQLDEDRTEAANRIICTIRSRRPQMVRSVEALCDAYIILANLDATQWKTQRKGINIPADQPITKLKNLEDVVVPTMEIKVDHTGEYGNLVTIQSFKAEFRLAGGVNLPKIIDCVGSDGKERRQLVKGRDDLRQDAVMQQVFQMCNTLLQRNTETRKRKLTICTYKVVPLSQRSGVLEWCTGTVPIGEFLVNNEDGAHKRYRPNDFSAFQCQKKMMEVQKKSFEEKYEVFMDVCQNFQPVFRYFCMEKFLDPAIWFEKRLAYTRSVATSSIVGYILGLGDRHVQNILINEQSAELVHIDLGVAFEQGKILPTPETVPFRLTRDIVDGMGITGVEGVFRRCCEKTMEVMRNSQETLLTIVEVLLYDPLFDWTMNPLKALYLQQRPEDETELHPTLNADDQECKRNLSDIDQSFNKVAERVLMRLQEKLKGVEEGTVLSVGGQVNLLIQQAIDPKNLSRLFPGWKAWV", "experiment": "ATM kinase assay (IC50 ATM), TR-FRET", "format": "biochemical", "description": "ATM Kinase Assay—Determination of ATM Inhibition (IC50 ATM):\nThe IC50 value was determined with the aid of a biochemical ATM kinase assay. The assay consists of two steps: the enzymatic reaction and the detection step. Firstly, ATM (ataxia telangiectasia mutated) protein and the test substance are incubated at different concentrations with addition of substrate protein p53 and ATP. ATM mediates the phosphorylation of p53 at several positions, including at amino acid S15. The amount of phosphorylated p53 is determined with the aid of specific antibodies and the TR-FRET technique. The enzymatic ATM assay is carried out as TR-FRET (HTRF™, Cisbio Bioassays) based 384-well assay. In the first step, purified human recombinant ATM (human ATM, full length, GenBank ID NM_000051, expressed in a mammal cell line) is incubated in assay buffer for 15 minutes with the ATM inhibitor in various concentrations and without test substance as negative or neutral control. The assay buffer comprises 25 mM HEPES pH 8.0, 10 mM Mg(CH3COO)2, 1 mM MnCl2, 0.1% BSA and 0.01% Brij® 35, 5 mM dithiothreitol (DTT). […] In the second step, purified human recombinant cmyc-labelled p53 (human p53, full length, GenBank ID BC003596, expressed in Sf21 insect cells) and ATP are added, and the reaction mixture is incubated at 22° C. for 30-35 minutes. The pharmacologically relevant assay volume is 5 μl. […] The enzymatic reaction is stopped by addition of EDTA. […] After incubation, usually for 2 hours (between 1.5 and 15 h), for signal development, the plates are analysed in a plate reader (EnVision, PerkinElmer) using TRF mode (and with laser excitation). […] The measurement data were processed by means of Genedata Screener software. IC50 determinations are carried out, in particular, by fitting a dose/action curve to the data points by means of nonlinear regression analysis."}, "mTOR (human)": {"target": "mTOR (human) (Homo sapiens (Human), UniProt P42345)", "experiment": "mTOR (human) radiometric kinase assay", "format": "biochemical", "description": "mTOR (human) was incubated with 50 mM HEPES pH 7.5, 1 mM EGTA, 0.01% Tween 20, 2 mg/ml of the substrate, 3 mM MnCl2 and [γ-^33P-ATP] (specific activity approximately 500 cpm/pmol, concentration as necessary). The reaction was initiated by addition of MgATP solution. After incubation at room temperature for 40 minutes, the reaction was stopped by addition of 3% phosphoric acid. 10 μl of the reaction solution were then transferred dropwise onto a P30 filtermat and washed three times for 5 min in 75 mM phosphoric acid and once in methanol, dried and evaluated by means of liquid scintillation counting."}, "PI3K p110δ/p85α (human)": {"target": "PI3K p110δ/p85α (human) (Homo sapiens (Human), UniProt O00329)", "sequence (O00329 whole entry)": "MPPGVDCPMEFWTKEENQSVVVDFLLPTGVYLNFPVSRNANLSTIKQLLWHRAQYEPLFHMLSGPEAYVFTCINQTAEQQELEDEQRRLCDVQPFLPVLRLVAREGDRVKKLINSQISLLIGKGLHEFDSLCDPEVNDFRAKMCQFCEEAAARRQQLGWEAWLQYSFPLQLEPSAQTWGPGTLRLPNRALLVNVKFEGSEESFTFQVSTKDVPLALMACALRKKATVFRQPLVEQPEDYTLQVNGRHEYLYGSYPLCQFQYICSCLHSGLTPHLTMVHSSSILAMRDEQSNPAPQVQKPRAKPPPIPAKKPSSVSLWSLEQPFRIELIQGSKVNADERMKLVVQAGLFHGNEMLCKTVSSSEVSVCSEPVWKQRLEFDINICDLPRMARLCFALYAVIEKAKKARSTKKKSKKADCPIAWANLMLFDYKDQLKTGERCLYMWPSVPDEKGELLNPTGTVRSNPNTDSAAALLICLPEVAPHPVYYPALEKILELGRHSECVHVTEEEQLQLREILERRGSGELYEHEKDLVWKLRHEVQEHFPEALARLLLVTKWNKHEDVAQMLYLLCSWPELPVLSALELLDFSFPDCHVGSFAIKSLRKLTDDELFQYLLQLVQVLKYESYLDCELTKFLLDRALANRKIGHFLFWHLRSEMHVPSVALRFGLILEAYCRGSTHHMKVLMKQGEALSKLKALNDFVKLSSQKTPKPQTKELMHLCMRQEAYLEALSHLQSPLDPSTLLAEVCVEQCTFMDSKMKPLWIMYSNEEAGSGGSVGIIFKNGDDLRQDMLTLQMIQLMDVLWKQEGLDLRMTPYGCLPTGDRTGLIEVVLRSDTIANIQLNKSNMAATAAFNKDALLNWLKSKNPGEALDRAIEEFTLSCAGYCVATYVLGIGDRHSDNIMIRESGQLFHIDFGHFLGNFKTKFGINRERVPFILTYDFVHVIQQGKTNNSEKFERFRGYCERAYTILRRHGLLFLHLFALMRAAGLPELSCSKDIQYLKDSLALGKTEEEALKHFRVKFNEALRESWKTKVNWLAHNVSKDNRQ", "sequence (P27986 whole entry partner)": "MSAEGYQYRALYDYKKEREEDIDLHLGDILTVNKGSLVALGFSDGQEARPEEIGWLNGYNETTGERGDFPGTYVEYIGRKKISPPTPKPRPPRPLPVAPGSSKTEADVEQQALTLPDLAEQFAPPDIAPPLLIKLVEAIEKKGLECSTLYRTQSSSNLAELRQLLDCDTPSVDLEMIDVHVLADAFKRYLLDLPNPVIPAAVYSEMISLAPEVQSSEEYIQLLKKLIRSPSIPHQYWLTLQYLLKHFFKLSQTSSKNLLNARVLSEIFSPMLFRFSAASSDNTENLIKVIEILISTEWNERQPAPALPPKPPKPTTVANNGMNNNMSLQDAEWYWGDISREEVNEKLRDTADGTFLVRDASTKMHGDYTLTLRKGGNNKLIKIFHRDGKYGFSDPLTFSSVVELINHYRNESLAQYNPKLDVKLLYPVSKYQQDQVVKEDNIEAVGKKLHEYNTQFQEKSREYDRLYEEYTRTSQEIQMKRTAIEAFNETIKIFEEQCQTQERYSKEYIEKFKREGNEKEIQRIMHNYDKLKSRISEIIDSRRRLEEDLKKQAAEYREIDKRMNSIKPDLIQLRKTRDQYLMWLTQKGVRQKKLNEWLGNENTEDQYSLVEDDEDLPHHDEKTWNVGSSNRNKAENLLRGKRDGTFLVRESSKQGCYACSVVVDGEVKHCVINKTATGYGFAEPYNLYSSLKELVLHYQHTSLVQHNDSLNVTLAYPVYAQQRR", "experiment": "PI3K p110δ/p85α (human), non-radioactive assay (HTRF)", "format": "biochemical", "conditions": "read-out: IC50 (PI3Kdelta)", "description": "(§1) The reaction was initiated by addition of MgATP solution. After an incubation time of 30 min at room temperature, the reaction was stopped by addition of a solution consisting of EDTA and biotinylated phosphatidylinositol 3,4,5-trisphosphate. Finally, the detection buffer, consisting of a europium-labelled anti-GST monoclonal antibody, a GST-labelled GRP1 PH domain and streptavidin allophycocyanin, was added. The plate was read out via homogeneous time-resolved fluorescence (HTRF) and the corresponding signals were evaluated via the formula HTRF=10000×(Em665 nm/Em620 nm)."}, "PI3K p110α/p85α (human)": {"target": "PI3K p110α/p85α (human) (Homo sapiens (Human), UniProt P42336)", "experiment": "PI3K p110α/p85α (human), non-radioactive assay (HTRF)", "format": "biochemical", "conditions": "read-out: IC50 (PI3Kalpha)", "description": "as §1, with “After” for “After an”, “incubation” for “incubation time of 30 min”, “temperature for 40 minutes,” for “temperature,”"}, "PI3K p110β/p85α (human)": {"target": "PI3K p110β/p85α (human) (Homo sapiens (Human), UniProt P42338)", "experiment": "PI3K p110β/p85α (human), non-radioactive assay (HTRF)", "format": "biochemical", "conditions": "read-out: IC50 (PI3Kbeta)", "description": "PI3K p110β/p85a (Human), Non-Radioactive Assay\nas §1, with “PI3K p110β/p85α (human) was incubated in an assay buffer comprising 10 μM phosphatidylinositol 4,5-bisphosphate and MgATP (concentration as necessary). The reaction” for “The reaction”"}, "PI3K (p120γ) (human)": {"target": "PI3K (p120γ) (human) (Homo sapiens (Human), UniProt P48736)", "experiment": "PI3K (p120γ) (human), non-radioactive assay (HTRF)", "format": "biochemical", "conditions": "read-out: IC50 (PI3Kgamma)", "description": "as §1, with “added.” for “added. The plate was read out via homogeneous time-resolved fluorescence (HTRF) and the corresponding signals were evaluated via the formula HTRF=10000×(Em665 nm/Em620 nm).”"}}, "note": "Read-outs that look alike come from different tables or passages of the source."}
{"smiles": "CCn1cc(-c2cc3c(cc2OC)ncc2c3n(-c3c(F)cncc3OC)c(=O)n2C)cn1", "note": "[Example 13]", "values": [{"measurement": "IC50", "setting": "[1]", "value": "< 0.2", "unit": "µM"}, {"measurement": "IC50", "setting": "human recombinant ATM", "value": "< 0.001", "unit": "µM"}, {"measurement": "IC50", "setting": "human recombinant ATM; 10 μM ATP, p53 substrate", "value": "< 0.001", "unit": "µM"}, {"measurement": "IC50", "setting": "mTOR (human)", "value": "> 10", "unit": "µM"}, {"measurement": "IC50", "setting": "PI3K p110δ/p85α (human)", "value": "> 10", "unit": "µM"}, {"measurement": "IC50", "setting": "PI3K p110α/p85α (human)", "value": "> 5", "unit": "µM"}, {"measurement": "IC50", "setting": "PI3K p110β/p85α (human)", "value": "> 30", "unit": "µM"}, {"measurement": "IC50", "setting": "PI3K (p120γ) (human)", "value": "> 30", "unit": "µM"}]}
